Bridges are numbered along the chain shown (N, C = ends). Where no end group is shown, it is not given here.
Assays:
[1] = test system: murine, infection induced, severe, steroid-insensitive, neutrophilic, allergic airways disease model of asthma; assay: Airway hyper-responsiveness (Flexivent), Ovalbumin/C. muridarum steroid-insensitive asthma model; type: in vivo, BALB/c mice; details: Ova sensitized, C. muridarum infected mice; hBD-2 IN 5 mg/kg day 30, 32, 34; DEX IN 2 mg/kg day 32-34; vs Saline control
Description: Female 6-8 weeks old BALB/c mice were intraperitoneally (IP) sensitized to ovalbumin 50 μg with the adjuvant alum 1 mg in 200 μL 0.9% saline. Mice were intranasally (IN) challenged with Ova on day 12-13 and day 33-34 (10 μg in 50 μL sterile saline).

[2] = test system: murine house dust mite driven model of allergic asthma; assay: Lung resistance and compliance, prophylactic treatment in HDM asthma model (Example 9); type: in vivo, BALB/c mice
Description: Female 7-10 weeks old BALB/c mice were randomly allocated into 5 study groups one day prior to study start and subcutaneously (SC) sensitized to house dust mite (100 μg HDM in 200 μL saline plus Freund's complete adjuvant in 0.9% saline). The mice were treated with hBD-2 orally and intranasally respectively at a dose of 1.2 mg/kg/day (0.4 mg/kg TID) starting on day 12 in the morning and continued TID at approximately 6 hours intervals. The last dose was administered on day 14 one hour prior to challenge. The total number of doses were 8 doses or a total of […] hBD-2. Mice were then intranasally (IN) challenged with HDM on day 14 (HDM 25 μg in 50 μL of saline).
Lung function: Starting 48 hours after HDM challenge, measurements of lung resistance and lung compliance were carried out after methacholine challenge (3.125 MCH1; 6.25 MCH2; 12.5 MCH3 and 25 mg/mL MCH4) by anaesthetized, cannulated mice using DSI's Buxco Finepoint RC system. Data are represented as airway resistance at 10 mg/kg methacholine and as dose responsive curves.

[3] = prophylactic intranasal 0.4 mg/kg TID day 12 to day 14
[4] = prophylactic oral 0.4 mg/kg TID day 12 to day 14

Sequence: GIGDPVTCLKSGAICHPVFCPRRYKQIGTCGLPGTKCCKKP (disulfide 8-37, 15-30, 20-38 (inferred)) [hBD-2, human beta defensin 2]
- AHR (airway hyper-responsiveness) [1]: completely normalized
- decrease of pulmonary compliance [2, 3]: inhibiting
- increase of airway resistance [2, 3]: inhibiting
- decrease of pulmonary compliance [2, 4]: inhibiting
- increase of airway resistance [2, 4]: inhibiting

From US11413328B2, “Methods for treating inflammatory conditions of the lungs” (priority 2016, dated 2022)
